Measurements as given in patent US20250073255A1, “USE OF FA-TYPE LIPID COMPOUNDS IN PREPARATION OF NUCLEIC ACID DELIVERY REAGENT AND RELATED PRODUCT” (BEIJING BAISHIKANG PHARMACEUTICAL TECHNOLOGY (BSJPHARMA) …, priority 2021, published 2025).

Tested on: C57BL/6 male mice
Assay: In vivo delivery study of lipid nucleic acid mixture (oral gavage, RT-qPCR of PGY-sRNA-26 in tissues)
Design: species or system mouse
Conditions: for overall delivery efficacy: delivering nucleic acids into each tissue and blood tested: 100 μg lipid:10 nmol PGY-sRNA-26, all tissues and blood tested; for oral delivery of single-stranded sRNA nucleic acids into mouse blood / oral delivery of single-stranded sRNA nucleic acids into mouse brain tissue / oral delivery of single-stranded sRNA nucleic acids into mouse femur / oral delivery of single-stranded sRNA nucleic acids into mouse heart tissue / oral delivery of single-stranded sRNA nucleic acids into mouse intestinal tissue / oral delivery of single-stranded sRNA nucleic acids into mouse kidney tissue / oral delivery of single-stranded sRNA nucleic acids into mouse liver tissue / oral delivery of single-stranded sRNA nucleic acids into mouse lung tissue / oral delivery of single-stranded sRNA nucleic acids into mouse spleen tissue / oral delivery of single-stranded sRNA nucleic acids into mouse stomach tissue / oral delivery of single-stranded sRNA nucleic acids into mouse pancreatic tissue: 100 μg lipid:10 nmol PGY-sRNA-26, sampled after 12 hours; for oral delivery of single-stranded sRNA nucleic acids into mouse heart tissue: vs free uptake group; for oral delivery of single-stranded sRNA nucleic acids into mouse intestinal tissue: intestine; for oral delivery of single-stranded sRNA nucleic acids into mouse pancreatic tissue: pancreas
Method in brief: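 Lipid (100 μg) and 10 nmol 3'-methylated single-stranded PGY-sRNA-26 were heated at 90 °C for 15 min, then given by oral gavage to mice fasted 12 h. Controls were saline and free sRNA. Blood and tissues were taken at 12 h, and levels were measured by stem-loop RT-qPCR relative to U6.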

SMILES	overall delivery efficacy: delivering nucleic acids into each tissue and blood tested	oral delivery of single-stranded sRNA nucleic acids into mouse blood	oral delivery of single-stranded sRNA nucleic acids into mouse brain tissue	oral delivery of single-stranded sRNA nucleic acids into mouse femur	oral delivery of single-stranded sRNA nucleic acids into mouse heart tissue	oral delivery of single-stranded sRNA nucleic acids into mouse intestinal tissue	oral delivery of single-stranded sRNA nucleic acids into mouse kidney tissue	oral delivery of single-stranded sRNA nucleic acids into mouse liver tissue	oral delivery of single-stranded sRNA nucleic acids into mouse lung tissue	oral delivery of single-stranded sRNA nucleic acids into mouse spleen tissue	oral delivery of single-stranded sRNA nucleic acids into mouse stomach tissue	oral delivery of single-stranded sRNA nucleic acids into mouse pancreatic tissue
CCCCCCCCCCCCCCO [Lipid 635, tetradecan-1-ol]	best delivery efficacy	can effectively orally deliver	can effectively orally deliver	can effectively orally deliver	can effectively orally deliver	can effectively orally deliver	can effectively orally deliver	can effectively orally deliver	can effectively orally deliver	can effectively orally deliver	can effectively orally deliver	
CCCCCCCCCCCCCCCCCCO [Lipid 636, octadecan-1-ol]	best delivery efficacy	can effectively orally deliver	can effectively orally deliver	can effectively orally deliver	can effectively orally deliver	can effectively orally deliver	can effectively orally deliver	can effectively orally deliver	can effectively orally deliver	can effectively orally deliver	can effectively orally deliver	
CCCCCCCCCCCC(=O)OC/C=C(\C)CC/C=C(\C)CCC=C(C)C [Lipid 802, [(2E,6E)-3,7,11-trimethyldodeca-2,6,10-trienyl]dodecanoate]	best delivery efficacy	can effectively orally deliver	can effectively orally deliver	can effectively orally deliver	can effectively orally deliver	can effectively orally deliver	can effectively orally deliver	can effectively orally deliver	can effectively orally deliver	can effectively orally deliver	can effectively orally deliver	can effectively orally deliver
CCCCCCCCCC(=O)OC/C=C(\C)CC/C=C(\C)CCC=C(C)C [Lipid 803, [(2E,6E)-3,7,11-trimethyldodeca-2,6,10-trienyl]decanoate]	best delivery efficacy	can effectively orally deliver	can effectively orally deliver	can effectively orally deliver	can effectively orally deliver	can effectively orally deliver	can effectively orally deliver	can effectively orally deliver	can effectively orally deliver	can effectively orally deliver	can effectively orally deliver	can effectively orally deliver
CCCCC/C=C\C/C=C\CCCCCCCCOC(=O)CCCCCCCCCCCCCCC [Lipid 804, [(9Z,12Z)-octadeca-9,12-dienyl] hexadecanoate]		can effectively orally deliver	can effectively orally deliver	can effectively orally deliver	can effectively orally deliver	can effectively orally deliver	can effectively orally deliver	can effectively orally deliver	can effectively orally deliver	can effectively orally deliver	can effectively orally deliver	can effectively orally deliver
CC/C=C\C/C=C\C/C=C\CCCCCCCC(=O)OCCCCCCCCCCCC [Lipid 805, dodecyl (9Z,12Z,15Z)-octadeca-9,12,15-trienoate]		can effectively orally deliver	can effectively orally deliver	can effectively orally deliver	can effectively orally deliver	can effectively orally deliver	can effectively orally deliver	can effectively orally deliver	can effectively orally deliver	can effectively orally deliver	can effectively orally deliver	can effectively orally deliver
